Measured values taken from patent US20250304620A1, “ANTIMICROBIAL PEPTIDE AND APPLICATION THEREOF” (priority 2023, published 2025).
Marks after values point to notes of the source that are not given here. Non-standard residues stand in square brackets, D forms with d. Residues, ends and D or L forms follow the SMILES beside them. dPhe(3,4-Cl2) = N[C@H](Cc1ccc(Cl)c(Cl)c1)C(=O)O; dPhe(4-CF3) = N[C@H](Cc1ccc(C(F)(F)F)cc1)C(=O)O; dPhe(4-Cl) = N[C@H](Cc1ccc(Cl)cc1)C(=O)O

How the values were obtained:
rabbit red blood cells = assay type: cell-based; conditions: red cells of rabbit, 1 h
[1] = test system: Pseudomonas aeruginosa ATCC 27853; test: Injectable formulations on mice infected with peritonitis; assay type: in vivo, ICR mice; conditions: 1 mg/kg via tail vein, twice a day for 3 days, n = 10; for Average survival times (Days): observed for 14 d
Method: Both female and male ICR mice were used in the test, half of the female and male mice were taken and randomly assigned into groups, with 10 mice in each group, and kept in separate cages. The mice were divided into a blank control group, a negative control group, a positive control Levofloxacin group, and AMPs LV-1 to LV-30 groups. A bacterial suspension of Pseudomonas aeruginosa ATCC 27853 was prepared, a concentration of the suspension was adjusted 1×10^9 CFU/mL for subsequent use. Except for the blank control group, all other mice were injected with the bacterial suspension (0.2 mL, 1×10^9 CFU/mL), into abdominal cavity of the mice, to establish a model. After the model was successfully established, the mice were given drug immediately according to their body weights. Except for the blank control group and the negative control group, the mice in all other groups were administered the corresponding injectable formulations via tail vein, twice a day for 3 consecutive days. The mice were then observed for 14 d. The death of mice in each group was observed, and survival time of the mice was recorded. Results of the effect of the injectable formulations of AMPs LV-1 to LV-30 on the survival time of mice infected with Pseudomonas aeruginosa are shown in Table 10.

[2] = test system: Escherichia coli ATCC 25922; test: Oral formulations on mice with systemic bacterial infection; assay type: in vivo, ICR mice; conditions: 1 mg/kg gavage, three times a day for 7 days, n = 10; for Average survival times (Days): observed for 14 d
Method: Both female and male ICR mice were used in the test, half of the female and male mice were taken and randomly assigned into groups, with 10 mice in each group, and kept in separate cages. The mice were divided into a blank control group, a negative control group, a positive control Levofloxacin group, and AMPs LV-1 to LV-30 groups. An Escherichia coli ATCC 25922 bacterial suspension was prepared, a concentration of the suspension was adjusted 1×10^7 CFU/mL for subsequent use. Except for the blank control group, all other mice were injected with the Escherichia coli suspension (0.2 mL, 1×10^7 CFU/mL), into abdominal cavity of the mice, to establish a model. After the model was successfully established, the mice were given drug immediately according to their body weights. Except for the blank control group and the negative control group, the mice in all other groups were gavaged with different compounds, three times a day for 7 consecutive days. The mice were then observed for 14 d. The death of mice in each group was observed, and survival time of the mice was recorded. Results of the effect of the oral formulations of AMPs LV-1 to LV-30 on the survival time of mice infected with Escherichia coli are shown in Table 11.

Structure (SMILES) | MHC (minimum hemolytic concentration, lowest concentration causing 10% hemolysis) (rabbit red blood cells) [µg/mL] | Number of mice that died on each day after infection: day 1 [1] [Mouse] | Number of mice that died on each day after infection: day 2 [1] [Mouse] | Number of mice that died on each day after infection: day 3 [1] [Mouse] | Number of mice that died on each day after infection: day 4 [1] [Mouse] | Number of mice that died on each day after infection: day 5 [1] [Mouse] | Average survival times (Days) [1] | Number of mice that died on each day after infection: day 4 [2] [Mouse] | Number of mice that died on each day after infection: day 5 [2] [Mouse] | Number of mice that died on each day after infection: day 6 [2] [Mouse] | Number of mice that died on each day after infection: day 7 [2] [Mouse] | Number of mice that died on each day after infection: day 8 [2] [Mouse] | Average survival times (Days) [2]
CC(=O)N[C@H](CCCNC(=N)N)C(=O)N[C@H](CCCCN)C(=O)N[C@H](CC(C)C)C(=O)N[C@H](CC(C)C)C(=O)N[C@H](Cc1ccc(Cl)cc1)C(=O)N[C@H](CCCCN)C(=O)N[C@H](CC(C)C)C(=O)N[C@H](CCCCN)C(=O)N[C@H](Cc1ccc(Cl)cc1)C(=O)N[C@H](CCCCN)C(=O)N[C@H](CCCNC(=N)N)C(N)=O [LV-7] (Ac-[dR][dK][dL][dL][dPhe(4-Cl)][dK][dL][dK][dPhe(4-Cl)][dK][dR]-NH2) | >1000 | 0 | 1 | 1 | 1 | 1 | 9.8*** Days | 2 | 2 | 0 | 1 | 1 | 8.9** Days
CC(=O)N[C@H](CCCNC(=N)N)C(=O)N[C@H](CCCCN)C(=O)N[C@H](CC(C)C)C(=O)N[C@H](CC(C)C)C(=O)N[C@H](Cc1ccc(Cl)c(Cl)c1)C(=O)N[C@H](CCCCN)C(=O)N[C@H](CC(C)C)C(=O)N[C@H](CCCCN)C(=O)N[C@H](Cc1ccc(Cl)c(Cl)c1)C(=O)N[C@H](CCCCN)C(=O)N[C@H](CCCNC(=N)N)C(N)=O [LV-8] (Ac-[dR][dK][dL][dL][dPhe(3,4-Cl2)][dK][dL][dK][dPhe(3,4-Cl2)][dK][dR]-NH2) | >1000 | 1 | 1 | 0 | 1 | 1 | 9.6*** Days | 2 | 1 | 0 | 2 | 0 | 9.7** Days
CC(=O)N[C@H](CCCNC(=N)N)C(=O)N[C@H](CCCCN)C(=O)N[C@H](CC(C)C)C(=O)N[C@H](CC(C)C)C(=O)N[C@H](Cc1ccc(C(F)(F)F)cc1)C(=O)N[C@H](CCCCN)C(=O)N[C@H](CC(C)C)C(=O)N[C@H](CCCCN)C(=O)N[C@H](Cc1ccc(C(F)(F)F)cc1)C(=O)N[C@H](CCCCN)C(=O)N[C@H](CCCNC(=N)N)C(N)=O [LV-9] (Ac-[dR][dK][dL][dL][dPhe(4-CF3)][dK][dL][dK][dPhe(4-CF3)][dK][dR]-NH2) | >1000 | 1 | 2 | 0 | 1 | 0 | 9.3*** Days | 1 | 1 | 1 | 2 | 0 | 9.9** Days
